We go through 18 compounds from ChEMBL document CHEMBL5291721, “A preclinical secondary pharmacology resource illuminates target-adverse drug reaction associations of marketed drugs” (Nat Commun, 2023).

For orientation: AC50 means the concentration at which the activity in the assay is half-maximal. A high value points to activity only at high concentration.

The target of one test is T1, B2 bradykinin receptor (Homo sapiens, UniProt P30411).
T1 sequence (P30411 whole entry): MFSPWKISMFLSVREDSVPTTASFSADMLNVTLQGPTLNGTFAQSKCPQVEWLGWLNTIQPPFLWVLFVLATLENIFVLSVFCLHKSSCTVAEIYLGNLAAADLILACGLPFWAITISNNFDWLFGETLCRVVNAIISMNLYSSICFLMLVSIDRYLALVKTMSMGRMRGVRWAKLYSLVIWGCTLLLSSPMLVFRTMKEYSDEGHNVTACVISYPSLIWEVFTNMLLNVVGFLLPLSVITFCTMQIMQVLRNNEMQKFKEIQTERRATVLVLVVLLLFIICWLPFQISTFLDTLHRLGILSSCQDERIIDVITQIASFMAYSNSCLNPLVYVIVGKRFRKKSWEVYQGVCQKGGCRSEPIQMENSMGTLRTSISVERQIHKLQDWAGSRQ

Test [1] concerns the target T2, Muscarinic acetylcholine receptor M2 (Homo sapiens, UniProt P08172).
T2 sequence (P08172 whole entry): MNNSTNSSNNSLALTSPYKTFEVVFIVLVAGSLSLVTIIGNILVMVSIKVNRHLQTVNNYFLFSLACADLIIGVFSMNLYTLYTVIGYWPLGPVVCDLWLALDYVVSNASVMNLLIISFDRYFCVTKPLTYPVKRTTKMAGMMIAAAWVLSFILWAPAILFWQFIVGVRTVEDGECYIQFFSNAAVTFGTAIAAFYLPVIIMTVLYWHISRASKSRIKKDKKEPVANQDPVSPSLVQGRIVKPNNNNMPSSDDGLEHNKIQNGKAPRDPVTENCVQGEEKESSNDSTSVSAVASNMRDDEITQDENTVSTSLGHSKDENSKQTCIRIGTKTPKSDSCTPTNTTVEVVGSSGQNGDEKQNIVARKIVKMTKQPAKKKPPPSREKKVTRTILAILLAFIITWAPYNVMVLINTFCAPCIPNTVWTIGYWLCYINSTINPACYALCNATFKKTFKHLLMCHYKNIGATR
The format is functional, cell-based.

For test [2], the target named is T3, 5-hydroxytryptamine receptor 1A (Homo sapiens, UniProt P08908).
T3 sequence (P08908 whole entry): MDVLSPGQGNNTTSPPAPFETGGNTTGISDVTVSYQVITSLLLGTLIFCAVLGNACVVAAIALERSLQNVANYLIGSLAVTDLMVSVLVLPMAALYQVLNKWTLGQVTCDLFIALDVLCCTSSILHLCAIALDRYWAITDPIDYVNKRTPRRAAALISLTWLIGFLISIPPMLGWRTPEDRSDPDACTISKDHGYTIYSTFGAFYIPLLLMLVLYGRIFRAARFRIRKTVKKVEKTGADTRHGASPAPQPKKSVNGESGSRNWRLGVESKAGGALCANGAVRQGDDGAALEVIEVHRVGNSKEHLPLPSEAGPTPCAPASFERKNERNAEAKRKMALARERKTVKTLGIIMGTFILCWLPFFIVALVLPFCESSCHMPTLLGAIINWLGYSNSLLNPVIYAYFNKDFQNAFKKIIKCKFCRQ
The format is functional, cell-based.

Another test has as its target T4, Progesterone receptor (Homo sapiens, UniProt P06401).
T4 sequence (P06401 whole entry): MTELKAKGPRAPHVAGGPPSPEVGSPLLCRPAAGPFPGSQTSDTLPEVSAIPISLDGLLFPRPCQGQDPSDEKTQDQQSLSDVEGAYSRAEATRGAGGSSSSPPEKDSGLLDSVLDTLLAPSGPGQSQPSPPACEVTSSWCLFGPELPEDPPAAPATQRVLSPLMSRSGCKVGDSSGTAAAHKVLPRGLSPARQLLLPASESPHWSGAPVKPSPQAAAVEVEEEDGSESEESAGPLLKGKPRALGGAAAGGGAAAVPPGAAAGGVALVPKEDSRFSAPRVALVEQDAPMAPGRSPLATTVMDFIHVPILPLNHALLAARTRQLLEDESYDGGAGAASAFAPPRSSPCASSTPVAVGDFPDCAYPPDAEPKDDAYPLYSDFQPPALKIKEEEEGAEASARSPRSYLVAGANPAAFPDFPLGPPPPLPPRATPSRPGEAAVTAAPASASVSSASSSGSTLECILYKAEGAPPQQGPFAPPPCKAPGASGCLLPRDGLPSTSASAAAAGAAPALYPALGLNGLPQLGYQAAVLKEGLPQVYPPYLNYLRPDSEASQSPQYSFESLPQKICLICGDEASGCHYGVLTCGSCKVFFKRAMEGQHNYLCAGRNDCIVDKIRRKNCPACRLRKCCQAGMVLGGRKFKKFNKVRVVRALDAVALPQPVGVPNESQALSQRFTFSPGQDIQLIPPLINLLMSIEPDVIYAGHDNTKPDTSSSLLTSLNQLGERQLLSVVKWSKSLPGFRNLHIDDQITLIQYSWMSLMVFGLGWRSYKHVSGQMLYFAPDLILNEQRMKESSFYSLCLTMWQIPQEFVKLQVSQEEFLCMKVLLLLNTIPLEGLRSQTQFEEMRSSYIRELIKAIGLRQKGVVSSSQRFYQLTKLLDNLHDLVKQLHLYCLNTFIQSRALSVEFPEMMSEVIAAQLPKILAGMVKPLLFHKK
The format is functional.

The target of test [3] is Sodium-dependent dopamine transporter (Homo sapiens, UniProt Q01959).
For test [4], the target named is T5, Alpha-1A adrenergic receptor (Homo sapiens, UniProt P35348).
T5 sequence (P35348 whole entry): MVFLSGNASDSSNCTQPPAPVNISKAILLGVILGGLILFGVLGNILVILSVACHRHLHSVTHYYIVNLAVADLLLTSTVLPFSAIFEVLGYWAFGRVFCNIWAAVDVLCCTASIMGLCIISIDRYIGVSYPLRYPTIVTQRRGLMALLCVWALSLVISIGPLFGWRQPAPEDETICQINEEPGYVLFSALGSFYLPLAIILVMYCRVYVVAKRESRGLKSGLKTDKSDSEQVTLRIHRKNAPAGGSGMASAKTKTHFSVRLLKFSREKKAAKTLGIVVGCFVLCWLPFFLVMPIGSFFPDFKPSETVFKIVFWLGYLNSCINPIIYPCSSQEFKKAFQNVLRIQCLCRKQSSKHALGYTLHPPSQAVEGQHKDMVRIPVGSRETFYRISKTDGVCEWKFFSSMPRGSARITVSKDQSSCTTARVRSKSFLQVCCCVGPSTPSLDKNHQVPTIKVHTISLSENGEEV
The format is functional, cell-based.

Where “and” joins values, the source holds several entries; their conditions need not be identical. Equal values may be shown once.
Note: assay procedure not described here.

Chain of Sodium-dependent dopamine transporter (Q01959 whole entry): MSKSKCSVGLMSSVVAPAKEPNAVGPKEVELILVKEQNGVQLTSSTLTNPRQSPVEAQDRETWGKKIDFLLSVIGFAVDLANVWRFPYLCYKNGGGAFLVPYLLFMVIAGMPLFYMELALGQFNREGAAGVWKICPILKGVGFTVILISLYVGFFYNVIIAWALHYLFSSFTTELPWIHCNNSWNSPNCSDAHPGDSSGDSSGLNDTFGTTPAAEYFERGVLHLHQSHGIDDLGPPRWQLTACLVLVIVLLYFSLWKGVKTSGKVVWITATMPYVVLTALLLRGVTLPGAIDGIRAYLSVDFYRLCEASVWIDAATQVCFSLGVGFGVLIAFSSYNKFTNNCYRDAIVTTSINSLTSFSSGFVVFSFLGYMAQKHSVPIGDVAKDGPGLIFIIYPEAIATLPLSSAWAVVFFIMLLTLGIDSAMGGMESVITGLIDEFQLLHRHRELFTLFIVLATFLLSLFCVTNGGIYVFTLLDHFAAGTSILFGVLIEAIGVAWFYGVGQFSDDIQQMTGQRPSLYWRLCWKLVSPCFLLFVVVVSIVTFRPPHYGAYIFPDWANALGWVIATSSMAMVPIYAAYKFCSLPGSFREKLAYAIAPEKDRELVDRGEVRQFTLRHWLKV

`CCCN(CC)C(CC)C(=O)Nc1c(C)cccc1C` (stereo not drawn) [ETIDOCAINE]: the AC50 (at B2 bradykinin receptor; in test [1]; in test [2]; on Progesterone receptor; in test [3]; in test [4]) was greater than 30 µM each time.
As for `Nc1nc(F)nc2c1ncn2[C@@H]1O[C@H](COP(=O)(O)O)[C@@H](O)[C@@H]1O` [FLUDARABINE PHOSPHATE], the AC50 (on B2 bradykinin receptor; in test [1]; in test [2]; at Progesterone receptor; in test [3]; in test [4]) was greater than 30 µM each time.
For `O=C(O)c1ccccc1OP(=O)(O)O` [FOSFOSAL], the AC50 (at B2 bradykinin receptor; in test [1]; in test [2]; on Progesterone receptor; in test [3]; in test [4]) was greater than 30 µM in each case.
As to `Nc1ccn([C@@H]2O[C@H](CO)[C@@H](O)C2(F)F)c(=O)n1` [GEMCITABINE], the AC50 is greater than 30 µM at B2 bradykinin receptor; greater than 10 µM in test [1]; greater than 10 µM in test [2]; greater than 30 µM on Progesterone receptor; greater than 30 µM in test [3]; greater than 30 µM in test [4].
Turning to `CCCCCCOC(=O)CCC(=O)CN` [HEXAMINOLEVULINATE], the AC50 (on B2 bradykinin receptor; in test [1]; in test [2]; at Progesterone receptor; in test [3]; in test [4]) was greater than 30 µM each time.
Take `Nc1nc2c(c(=O)[nH]1)N(C=O)C(CNc1ccc(C(=O)N[C@@H](CCC(=O)O)C(=O)O)cc1)CN2` (stereo partly drawn) [LEUCOVORIN]: the AC50 (on B2 bradykinin receptor; in test [1]; in test [2]; on Progesterone receptor; in test [3]; in test [4]) was greater than 30 µM each time.
For `Cc1ccc(NC(=O)C2(c3ccc4c(c3)OC(F)(F)O4)CC2)nc1-c1cccc(C(=O)O)c1` [LUMACAFTOR], the concentration at half-maximal activity (AC50) at B2 bradykinin receptor is greater than 30 µM; in test [1] it was greater than 30 µM; in test [2] it was greater than 30 µM; on Progesterone receptor, greater than 30 µM; in test [3], greater than 30 µM; in test [4], 25 µM.
As for `CC(C)OC(=O)C(C(=O)OC(C)C)=C1SC=CS1` [MALOTILATE], the AC50 at B2 bradykinin receptor was greater than 30 µM; in test [1], greater than 30 µM; in test [2], greater than 30 µM; at Progesterone receptor, greater than 30 µM; in test [3], greater than 30 µM; in test [4], 28 µM.
As to `CC(=O)Nc1c(I)c(C(=O)N[C@H]2C(O)O[C@H](CO)[C@@H](O)[C@@H]2O)c(I)c(N(C)C(C)=O)c1I` (stereo partly drawn) [METRIZAMIDE], the AC50 at B2 bradykinin receptor was greater than 10 µM; in test [1], greater than 10 µM; in test [2], greater than 10 µM; at Progesterone receptor it was greater than 10 µM; in test [3], greater than 10 µM; in test [4] it was greater than 30 µM.
As for `CN(c1nccc(=O)[nH]1)C1CCN(c2nc3ccccc3n2Cc2ccc(F)cc2)CC1` [MIZOLASTINE], the AC50 (on B2 bradykinin receptor; in test [1]; in test [2]; at Progesterone receptor; in test [3]; in test [4]) was greater than 30 µM throughout.
Turning to `Cc1ccc(=O)n(-c2ccccc2)c1` [PIRFENIDONE], the half-maximal activity concentration (AC50) (at B2 bradykinin receptor; in test [1]; in test [2]; on Progesterone receptor; in test [3]; in test [4]) was greater than 30 µM in each case.
With `CCCNC(C)C(=O)Nc1ccccc1C` (stereo not drawn) [PRILOCAINE], the AC50 at B2 bradykinin receptor is greater than 30 µM; in test [1], greater than 10 µM; in test [2], greater than 30 µM; on Progesterone receptor it was 3.9 µM; in test [3] it was greater than 30 µM; in test [4] it was greater than 30 µM.
On to `NC(=O)CCC/N=C(\c1ccc(Cl)cc1)c1cc(F)ccc1O` [PROGABIDE], for which the AC50 on B2 bradykinin receptor is greater than 10 µM; in test [1] it was greater than 10 µM; in test [2], greater than 10 µM; on Progesterone receptor, greater than 10 µM; in test [3], greater than 10 µM; in test [4], greater than 30 µM.
For the compound `CCN(CC)CC(=O)Oc1ccc(NC(C)=O)cc1` [PROPACETAMOL], the AC50 (at B2 bradykinin receptor; in test [1]; in test [2]; on Progesterone receptor; in test [3]; in test [4]) was greater than 30 µM each time.
In the case of `CCCOC(C(=O)OC1CCN(C)CC1)(c1ccccc1)c1ccccc1` [PROPIVERINE], the concentration at half-maximal activity (AC50) at B2 bradykinin receptor is greater than 30 µM; in test [1], greater than 30 µM; in test [2] it was greater than 30 µM; at Progesterone receptor, greater than 30 µM; in test [3], 16 µM; in test [4], greater than 30 µM.
As to `Cc1ccc2c(-c3ccccc3)nc(=O)n(C(C)C)c2c1` [PROQUAZONE], the AC50 on B2 bradykinin receptor is greater than 10 µM; in test [1], greater than 30 µM; in test [2], greater than 30 µM; at Progesterone receptor it was greater than 30 µM; in test [3], greater than 30 µM; in test [4], greater than 30 µM.
As for `CC(NCCc1ccc(O)cc1)C(O)c1ccc(O)cc1` (stereo not drawn) [RITODRINE], the AC50 on B2 bradykinin receptor is greater than 30 µM; in test [1], greater than 30 µM; in test [2], greater than 30 µM; at Progesterone receptor, greater than 30 µM; in test [3] it was 19.5 µM and 12.3 µM; in test [4], 2 µM.
Turning to `CN1CCN(c2c(F)cc3c(=O)c(C(=O)O)cn4c3c2SCC4)CC1` [RUFLOXACIN], the AC50 (at B2 bradykinin receptor; in test [1]; in test [2]; on Progesterone receptor; in test [3]; in test [4]) was greater than 30 µM in each case.
